Data: US8952024B2, “Herbicidal pyrimidone derivatives” (E I du Pont de Nemours and Company, priority 2009, dated 2015)

Tests used:
Type in all cases: in vivo
[1] = tested on: Italian ryegrass (Lolium multiflorum); assay: Test B pre-/postemergence plant response
Outline: (§1)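 Each species received compound formulated in non-phytotoxic solvent with surfactant, either at planting into a loam and sand blend or as a foliar spray once plants reached 2 to 18 cm in peat-based medium. Plants stayed in the greenhouse 13 to 15 days before visual evaluation against controls, scored 0 (no effect) to 100 (complete control).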

[2] = tested on: bermudagrass (Cynodon dactylon); assay: Test B pre-/postemergence plant response
Outline: as §1

[3] = tested on: galium (catchweed bedstraw, Galium aparine); assay: Test B pre-/postemergence plant response; details: Preemergence
Outline: as §1

[4] = tested on: lambsquarters (Chenopodium album); assay: Test B pre-/postemergence plant response
Outline: as §1

[5] = tested on: nightshade (eastern black nightshade, Solanum ptycanthum); assay: Test B pre-/postemergence plant response; details: Preemergence
Outline: as §1

[6] = tested on: pigweed (Amaranthus retroflexus); assay: Test B pre-/postemergence plant response
Outline: as §1

[7] = tested on: ragweed (common ragweed, Ambrosia elatior); assay: Test B pre-/postemergence plant response
Outline: as §1

[8] = tested on: sunflower (common oilseed sunflower, Helianthus annuus); assay: Test B pre-/postemergence plant response; details: Preemergence
Outline: as §1

[9] = tested on: wheat (Triticum aestivum); assay: Test B pre-/postemergence plant response
Outline: as §1

[10] = tested on: canarygrass (Phalaris minor); assay: Test B postemergence plant response
Outline: (§2)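 Visual ratings from 0 (no effect) to 100 (complete control), made against controls 13–15 days after treatment, kept in a greenhouse. Compounds were applied postemergence to potted plants at the 1- to 4-leaf stage (2–18 cm).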

[11] = tested on: chickweed (Stellaria media); assay: Test B postemergence plant response
Outline: as §2

[12] = tested on: windgrass (Apera spica-venti); assay: Test B postemergence plant response
Outline: as §2

[13] = tested on: winter barley (Hordeum vulgare); assay: Test B postemergence plant response
Outline: as §2

[14] = tested on: goosegrass (Eleusine indica); assay: Test B pre-/postemergence plant response; details: Preemergence, 62 g ai/ha; scale 0 to 100, 0 no effect, 100 complete control
[15] = 31 g ai/ha, postemergence, scale 0 to 100, 0 is no effect, 100 is complete control
[16] = 250 g ai/ha, Preemergence, 0 to 100 scale
[17] = Postemergence, 62 g ai/ha, scale 0 (no effect) to 100 (complete control), 13 to 15 days
[18] = Postemergence, 125 g ai/ha, visual rating after 13 to 15 days, scale 0 (no effect) to 100 (complete control)
[19] = Postemergence, 250 g ai/ha, scale 0 to 100 (0 no effect, 100 complete control)
[20] = Preemergence, 31 g ai/ha, scale 0 to 100 (0 no effect, 100 complete control)
[21] = Preemergence, 125 g ai/ha, 0 to 100 scale
[22] = Preemergence, 62 g ai/ha, scale 0 to 100, 0 no effect, 100 complete control
[23] = 31 g ai/ha, scale 0 to 100 (0 no effect, 100 complete control)
[24] = 62 g ai/ha, scale 0 to 100, 0 no effect, 100 complete control

Structure (SMILES): CCCn1c(-c2ccccc2)ncc(C(=O)C2=C(O)CCCC2=O)c1=O [Compound 50]
- Plant response rating, Ryegrass, Italian [1, 15]: 0
- Plant response rating, Ryegrass, Italian [1, 16]: 0
- Plant response rating, Ryegrass, Italian [1, 17]: 0
- Plant response rating, Ryegrass, Italian [1, 18]: 0
- Plant response rating, Ryegrass, Italian [1, 19]: 0
- Plant response rating, Ryegrass, Italian [1, 20]: 0
- Ryegrass, Italian plant response rating [1, 21]: 0
- Plant response rating, Bermudagrass [2, 15]: 90
- Plant response rating, Bermudagrass [2, 16]: 100
- Plant response rating, Bermudagrass [2, 17]: 100
- Plant response rating, Bermudagrass [2, 18]: 100
- Plant response rating, Bermudagrass [2, 19]: 100
- Plant response rating, Bermudagrass [2, 20]: 100
- Plant response rating, Bermudagrass [2, 22]: 100
- Bermudagrass plant response rating [2, 21]: 100
- Plant response rating, Galium ([3]; 250 g ai/ha, 0 to 100 scale): 98
- Plant response rating, Galium [3, 23]: 70
- Plant response rating, Galium [3, 24]: 95
- Galium plant response rating ([3]; 125 g ai/ha, 0 to 100 scale): 95
- Plant response rating, Lambsquarters [4, 15]: 98
- Plant response rating, Lambsquarters [4, 16]: 100
- Plant response rating, Lambsquarters [4, 17]: 98
- Plant response rating, Lambsquarters [4, 18]: 100
- Plant response rating, Lambsquarters [4, 19]: 100
- Plant response rating, Lambsquarters [4, 20]: 100
- Plant response rating, Lambsquarters [4, 22]: 100
- Lambsquarters plant response rating [4, 21]: 100
- Plant response rating, Nightshade ([5]; 250 g ai/ha, 0 to 100 scale): 100
- Plant response rating, Nightshade [5, 23]: 100
- Plant response rating, Nightshade [5, 24]: 100
- Nightshade plant response rating ([5]; 125 g ai/ha, 0 to 100 scale): 100
- Plant response rating, Pigweed [6, 15]: 80
- Plant response rating, Pigweed [6, 16]: 100
- Plant response rating, Pigweed [6, 17]: 98
- Plant response rating, Pigweed [6, 18]: 100
- Plant response rating, Pigweed [6, 19]: 100
- Plant response rating, Pigweed [6, 20]: 90
- Pigweed plant response rating [6, 21]: 100
- Plant response rating, Ragweed [7, 15]: 80
- Plant response rating, Ragweed [7, 16]: 100
- Plant response rating, Ragweed [7, 17]: 90
- Plant response rating, Ragweed [7, 18]: 98
- Plant response rating, Ragweed [7, 19]: 98
- Plant response rating, Ragweed [7, 20]: 75
- Ragweed plant response rating [7, 21]: 95
- Plant response rating, Sunflower ([8]; 250 g ai/ha, 0 to 100 scale): 85
- Plant response rating, Sunflower [8, 23]: 55
- Sunflower plant response rating ([8]; 125 g ai/ha, 0 to 100 scale): 85
- Plant response rating, Wheat [9, 15]: 0
- Plant response rating, Wheat [9, 16]: 0
- Plant response rating, Wheat [9, 17]: 5
- Plant response rating, Wheat [9, 18]: 5
- Plant response rating, Wheat [9, 19]: 15
- Plant response rating, Wheat [9, 20]: 0
- Wheat plant response rating [9, 21]: 0
- Plant response rating, Canarygrass [10, 15]: 0
- Plant response rating, Canarygrass [10, 17]: 0
- Plant response rating, Canarygrass [10, 18]: 5
- Plant response rating, Canarygrass [10, 19]: 5
- Plant response rating, Chickweed [11, 15]: 80
- Plant response rating, Chickweed [11, 17]: 80
- Plant response rating, Chickweed [11, 18]: 98
- Plant response rating, Chickweed [11, 19]: 98
- Plant response rating, Windgrass [12, 15]: 10
- Plant response rating, Windgrass [12, 17]: 50
- Plant response rating, Windgrass [12, 18]: 60
- Plant response rating, Windgrass [12, 19]: 80
- Plant response rating, Barley [13, 15]: 0
- Plant response rating, Barley [13, 17]: 0
- Plant response rating, Barley [13, 18]: 5
- Plant response rating, Barley [13, 19]: 5
- Plant response rating, Goosegrass [14]: 98
